Laboratory results: ChEMBL document CHEMBL3507680, “University of Dundee, Gates Library screen for HepG2 cell viability”

Experiment: Human HepG2 cell viability assay in 384 well format
Assay type: toxicity, cell-based
Set-up: dose 125 nL, time 70.5 hour; concentration not given beside the values
Conditions: HepG2 cells, read-out: Inhibition

CCn1nc(CNC(=O)C2CCCN(C(=O)COC)C2)c2ccccc21 (stereo not given)
cytotoxicity at 70.5 h: -5.41%

CN1[C@H]2CC[C@@H]1CN(c1cc(Sc3cccs3)nc(N)n1)CC2
cytotoxicity at 70.5 h: 22.8%

Cc1noc(-c2ccnc(Oc3ccc(CN4CCCC4)cc3F)c2)n1
cytotoxicity at 70.5 h: 13.3%

Cc1ccc2c(c1)c(CNC(=O)C1CC(=O)N(C3CC3)C1)nn2C (stereo not given)
cytotoxicity at 70.5 h: -4.12%

O=C(c1cccc(-c2ccc(F)cc2)c1)N1CCC2(CC1)[C@H](O)C[C@@H]2O
cytotoxicity at 70.5 h: -9.07%

Cc1nc(CNc2nc(-c3ccco3)nc3c2CCNCC3)n[nH]1
cytotoxicity at 70.5 h: -5.4%

COc1cc(-c2cc(NC3CCCC3)nc3[nH]ccc23)nc(N)n1
cytotoxicity at 70.5 h: -11.3%

COCC(=O)N1CCC(C(=O)N(C)C(C)c2ccon2)CC1 (stereo not given)
cytotoxicity at 70.5 h: -2.4%

Cc1ccc(Oc2ncccc2CNC(=O)NC2CCCCC2)cn1
cytotoxicity at 70.5 h: -6.45%

Cc1nc[nH]c1CN1CCOC(c2ccc(Cl)c(Cl)c2)C1 (stereo not given)
cytotoxicity at 70.5 h: -2.06%

c1ccc(C(Cn2cccn2)Nc2cnccn2)cc1 (stereo not given)
cytotoxicity at 70.5 h: -12.5%

CCC(CO)N(Cc1ccccn1)C(=O)c1cccc(C#N)c1 (stereo not given)
cytotoxicity at 70.5 h: -1.64%

CC1CCN(CC2(O)CCCN(Cc3cccc(F)c3F)C2=O)CC1 (stereo not given)
cytotoxicity at 70.5 h: 1.43%

CN(CCc1ccccn1)C(=O)c1cn2c(n1)CNCC2
cytotoxicity at 70.5 h: -8.81%

CN(C)CC1(O)CCCN(C(=O)c2cnc(-c3ccccn3)nc2)C1 (stereo not given)
cytotoxicity at 70.5 h: -3.36%

CC(C)C(=O)N1CCN(C(=O)c2cc(C(C)C)no2)[C@H]2CS(=O)(=O)C[C@H]21
cytotoxicity at 70.5 h: -0.523%

Cc1cc(N(C)Cc2ncc[nH]2)nc(-c2ccccc2)n1
cytotoxicity at 70.5 h: -6.89%

O=C(c1ccc(C2CCCN2C(=O)c2cscn2)s1)N1CCSCC1 (stereo not given)
cytotoxicity at 70.5 h: -11.1%

COc1ccc([C@@H]2CN(c3cc(C(=O)O)ccn3)C[C@H]2N(C)C)cc1
cytotoxicity at 70.5 h: 25.7%

CCc1cc(NCCc2cc(F)cc(F)c2)n2nccc2n1
cytotoxicity at 70.5 h: -2.57%

CS(=O)(=O)N1C[C@@H]2CC[C@H](C1)N(Cc1ccsc1)C2
cytotoxicity at 70.5 h: 34.2%

CCc1ccc(-c2c(C)c(-c3cnn(C)c3)nc(N)c2C#N)o1
cytotoxicity at 70.5 h: -6.72%

COc1cccc(Cl)c1C(C(=O)O)N(C)Cc1c(C)n[nH]c1C (stereo not given)
cytotoxicity at 70.5 h: -12.4%

CCN1CCCC(c2c(-c3ccccc3)ncn2Cc2csc(N)n2)C1 (stereo not given)
cytotoxicity at 70.5 h: -0.765%

CN(Cc1cc2n(n1)CCCNC2)Cc1cc(-c2ccncc2)no1
cytotoxicity at 70.5 h: -5.61%

OC(CNc1nc(C2CCCC2)nc2c1CCNCC2)C(F)(F)F (stereo not given)
cytotoxicity at 70.5 h: -7.87%

CCn1cc(CNC(=O)CCc2nnc(-c3ccc(C)s3)o2)cn1
cytotoxicity at 70.5 h: 10%

CCn1cnnc1CCNC(=O)CCNC(=O)c1ccccc1F
cytotoxicity at 70.5 h: -6.14%

CCS(=O)(=O)N[C@H]1CN(CC(C)(C)N2CCOCC2)C[C@@H]1C1CC1
cytotoxicity at 70.5 h: -18.9%

COCCN1CCCC(O)(CN2CCN(c3cnccn3)CC2)C1=O (stereo not given)
cytotoxicity at 70.5 h: -3.08%

CC(C)n1cnnc1CCNCc1cn(CCC(N)=O)c2ccccc12
cytotoxicity at 70.5 h: -0.781%

CC(C)NCc1cc2n(n1)CCN(C1CCCCC1)C2
cytotoxicity at 70.5 h: 9.14%

CCCc1ccc2oc(C(=O)N3CCN(CCOC)CC3)c(C)c2c1
cytotoxicity at 70.5 h: -2.68%

COC1CCN(S(=O)(=O)NCC2COc3ccccc3C2)CC1 (stereo not given)
cytotoxicity at 70.5 h: -4.76%

Cc1nc2ccc(S(=O)(=O)Nc3c(C)nn(CC(=O)O)c3C)cc2s1
cytotoxicity at 70.5 h: -10.8%

Cc1ccnn1CCC(=O)N1C[C@H]2CC[C@@H]1CN(CC(=O)N(C)C)C2
cytotoxicity at 70.5 h: -0.432%

CCC[C@H]1CN(Cc2cc(C#N)n(C)c2C)C[C@@H]1N(C)C
cytotoxicity at 70.5 h: -7.07%

C/C=C(\C)CN1C[C@@H](NC(=O)c2ccc(F)c(F)c2)C[C@H]1C(=O)NCC
cytotoxicity at 70.5 h: -12.2%

Cc1cc(C)n(CC(C)NCc2nc(-c3cccnc3)no2)n1 (stereo not given)
cytotoxicity at 70.5 h: -6.9%

Cc1nc(CN(C)Cc2cnc(N3CCOCC3)s2)no1
cytotoxicity at 70.5 h: 22.9%

CCn1c(C2CCCN(Cc3cccc4cnccc34)C2)nn(C)c1=O (stereo not given)
cytotoxicity at 70.5 h: -7.71%

CC(=O)Nc1ccc(C(=O)Nc2cnc3n2CCCC3)cc1C
cytotoxicity at 70.5 h: 5.91%

O=C(CCc1cc2n(n1)CCNC2)NCCS(=O)(=O)N1CCCC1
cytotoxicity at 70.5 h: -11.2%

Cc1c[nH]c(CN2CC[C@@]3(O)CCN(C(=O)C4CCC4)C[C@H]3C2)n1
cytotoxicity at 70.5 h: -1.74%

COc1ncc(C2(O)CCN(Cc3ccccc3O)CC2)c(OC)n1
cytotoxicity at 70.5 h: 7.32%

COCCc1ncc(CN2CCC(Oc3ccccc3C)CC2)cn1
cytotoxicity at 70.5 h: -0.184%

Cc1nc(-c2cccc(C(=O)O)c2)cc(C2CCN(C(C)C)C2)n1 (stereo not given)
cytotoxicity at 70.5 h: -2.07%

Cc1cccnc1C(=O)N1CCCC(c2[nH]ncc2S(C)(=O)=O)C1 (stereo not given)
cytotoxicity at 70.5 h: 0.897%

Cc1cccnc1C(=O)N1CCCCC1c1[nH]ncc1S(C)(=O)=O (stereo not given)
cytotoxicity at 70.5 h: 1.39%

Cc1cnc(C(=O)N2CCCCC2c2[nH]ncc2S(C)(=O)=O)cn1 (stereo not given)
cytotoxicity at 70.5 h: 3.44%

Cc1nccc(CN2CC[C@H](Oc3cccc(F)c3)[C@@](C)(O)C2)n1
cytotoxicity at 70.5 h: -3.99%

Cc1nccn1-c1cccc(C2CCCN2S(=O)(=O)N(C)C)n1 (stereo not given)
cytotoxicity at 70.5 h: 2.07%

Cc1nc(C2CCCN2CC(=O)Nc2c(C)n[nH]c2C)no1 (stereo not given)
cytotoxicity at 70.5 h: 39%

COc1c(C2CCCN2C(=O)c2sc(C)nc2C)c(C)nn1C (stereo not given)
cytotoxicity at 70.5 h: 10.6%

COCc1cccc(CNC(=O)c2c(C)noc2C(C)C)c1
cytotoxicity at 70.5 h: 10.6%

CC1CN(C)CCN1C(=O)c1ccn(-c2ccccc2)n1 (stereo not given)
cytotoxicity at 70.5 h: 17.4%

CC1CN(C)CCN1C(=O)c1cnn(-c2cccc(Cl)c2)c1 (stereo not given)
cytotoxicity at 70.5 h: -9.03%

Cc1n[nH]c(C)c1NC(=O)CN1CCCC1c1noc(C(C)C)n1 (stereo not given)
cytotoxicity at 70.5 h: 15.2%

O=c1oc(-c2ccc(F)cc2)nn1CN1CCCCC1
cytotoxicity at 70.5 h: -18.4%

Cc1nc(-c2ccccc2)n(CC(=O)NC2CCCCC2)n1
cytotoxicity at 70.5 h: -14.1%

Cc1noc(C(C)C)c1C(=O)NCc1ccc(N(C)C)c(F)c1
cytotoxicity at 70.5 h: -9.82%

Cc1cc(CN2CCN(c3ccc4nncn4n3)C(C)C2)on1 (stereo not given)
cytotoxicity at 70.5 h: 20%

CCOc1ccc2cc(C(=O)N3CCn4c(CC)nnc4C3)[nH]c2c1
cytotoxicity at 70.5 h: -8.2%

Cc1nc(-c2ccccc2C)n(CC(=O)NC2CCCC2)n1
cytotoxicity at 70.5 h: 19%

CCc1nnc2n1CCN(C(=O)c1cc3ccc(C)cc3[nH]1)C2
cytotoxicity at 70.5 h: -12.2%

CCc1nnc2n1CCN(C(=O)c1cc3c(F)cccc3[nH]1)C2
cytotoxicity at 70.5 h: -6.74%

CN1CCN(C2CCN(CCOc3ccccc3F)CC2)C1=O
cytotoxicity at 70.5 h: -11.6%

CCOc1ccc(CC(=O)N2CCCC(n3nc(C)nc3C)C2)cc1 (stereo not given)
cytotoxicity at 70.5 h: -5.27%

COc1c(C2CCCN2C(=O)c2cscn2)c(C)nn1C (stereo not given)
cytotoxicity at 70.5 h: 18.5%

Cc1nc(C)n(C2CCCN(C(=O)COc3ccccc3)C2)n1 (stereo not given)
cytotoxicity at 70.5 h: -8.86%

Cc1nc(C)n(C2CCCN(C(=O)CCOc3cccc(F)c3)C2)n1 (stereo not given)
cytotoxicity at 70.5 h: -6.19%

Cc1ncc(CN2CCN(c3ccc4nncn4n3)C(C)C2)s1 (stereo not given)
cytotoxicity at 70.5 h: -11.1%

COc1cccc(S(=O)(=O)NC(=O)CCC2CCCC2)c1
cytotoxicity at 70.5 h: -8.64%

COc1cccc(S(=O)(=O)NC(=O)COC2CCCCC2)c1
cytotoxicity at 70.5 h: 0.508%

COCCc1noc(CN2CCCC2Cn2cccn2)n1 (stereo not given)
cytotoxicity at 70.5 h: -9.31%

CCc1csc(C2CCCN(C(=O)c3ccc(=O)n(CC)n3)C2)n1 (stereo not given)
cytotoxicity at 70.5 h: -5.74%

COCCc1noc(CN2CCCCC2Cn2cccn2)n1 (stereo not given)
cytotoxicity at 70.5 h: -11.6%

CCN1N=C(C(=O)N2CCCC(c3nc(C)cs3)C2)CCC1=O (stereo not given)
cytotoxicity at 70.5 h: -2.03%

CC(NC(=O)NCCNc1ccccn1)c1cccs1 (stereo not given)
cytotoxicity at 70.5 h: -1.83%

COc1ccc(CNC(C)Cn2cccn2)c(OC)c1OC (stereo not given)
cytotoxicity at 70.5 h: -7.21%
